The text below walks through data of ChEMBL document CHEMBL5614367, “Hydroxamic acid hybrids: Histone deacetylase inhibitors with anticancer therapeutic potency” (Eur J Med Chem, 2023).

One may read the half-life as the time in which the quantity being followed falls by half. What is called IC50 is the concentration needed to halve the response being measured.

The subject of data set [1] is BE(2)-C. The experiment in a line: Antitumor activity against human BE2C cells xenografted in mouse assessed as tumor growth inhibition at 50 mg/kg, ip relative to control. Format: functional. The conditions noted are these: read-out: TGI. In general terms: A xenograft is tissue or cells of one species grown in another, often human tumour cells in immunodeficient mice.

The nature of data set [2]: Metabolic stability in liver microsomes (unknown origin) assessed as half life. Type of data set: ADME, Microsome.
A short description of data set [3]: Metabolic stability in liver microsomes (unknown origin) assessed as clearance. Type of data set: ADME, Microsome. The conditions noted are these: read-out: CLH.
Another data set deals with T1, Histone deacetylase 8 (Homo sapiens, UniProt Q9BY41).
T1 sequence (Q9BY41 whole entry): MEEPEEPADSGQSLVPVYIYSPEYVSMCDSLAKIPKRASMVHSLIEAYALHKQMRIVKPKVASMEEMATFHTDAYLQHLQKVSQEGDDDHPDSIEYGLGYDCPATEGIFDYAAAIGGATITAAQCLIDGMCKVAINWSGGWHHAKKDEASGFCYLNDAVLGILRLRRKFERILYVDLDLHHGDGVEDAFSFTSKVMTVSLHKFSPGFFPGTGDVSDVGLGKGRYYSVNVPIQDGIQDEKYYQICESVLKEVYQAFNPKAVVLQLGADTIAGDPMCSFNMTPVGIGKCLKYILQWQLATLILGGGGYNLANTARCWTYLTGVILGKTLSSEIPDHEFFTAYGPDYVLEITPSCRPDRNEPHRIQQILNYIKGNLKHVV
The experiment in a line: Inhibition of HDAC8 (unknown origin).

Data set [4] relates to U-87 MG. The experiment in a line: Antitumor activity against luciferase-transferred human U-87 MG cells xenografted in athymic nude mouse assessed as survival time at 150 mg/kg, po measured for 20 days. The note with it: time 20 day. Type of data set: functional, U-87MG ATCC.
For data set [5], the system named is C6. As to the kind of experiment: Antitumor activity against rat C6 cells allografted in Sprague-Dawley rat assessed as survival time at 150 mg/kg, po measured for 20 days. Type of data set: functional. The note with it: time 20 day.
In data set [6] the test system is BE(2)-C. The experiment in a line: Antitumor activity against human BE2C cells xenografted in mouse assessed as tumor growth inhibition at 5 mg/kg, ip relative to control. Type of data set: functional. The conditions noted are these: read-out: TGI.
For data set [7], the system named is BE(2)-C. The experiment in a line: Antitumor activity against human BE2C cells xenografted in mouse assessed as tumor growth inhibition at 5 mg/kg, ip in presence of 50 mg/kg vorinostat relative to control. Format: functional. The conditions noted are these: read-out: TGI.
The subject of data set [8] is SK-OV-3. As to the kind of experiment: Antitumor activity against human SK-OV-3 cells xenografted in female Balb/c nude mouse assessed as reduction in tumor growth at 50 mg/kg, sc administered once a day and measured every 2 to 3 days for 19 days relative to control. Type of data set: functional. Set-up: scale not given: the % may be the effect or the level left. The conditions noted are these: time 19 day.

In data set [9] the test system is SK-OV-3. The experiment in a line: Antiproliferative activity against human SK-OV-3 cells assessed as inhibition of cell growth incubated for 72 hrs by CCK-8 assay. Format: functional, cell-based. The note with it: SK-OV-3, 72 h. On the technique in general: Tetrazolium dyes change colour on reduction, which living cells bring about.
In data set [10] the target is T2, Protein deacetylase HDAC6 (Homo sapiens, UniProt Q9UBN7).
T2 sequence (Q9UBN7 whole entry): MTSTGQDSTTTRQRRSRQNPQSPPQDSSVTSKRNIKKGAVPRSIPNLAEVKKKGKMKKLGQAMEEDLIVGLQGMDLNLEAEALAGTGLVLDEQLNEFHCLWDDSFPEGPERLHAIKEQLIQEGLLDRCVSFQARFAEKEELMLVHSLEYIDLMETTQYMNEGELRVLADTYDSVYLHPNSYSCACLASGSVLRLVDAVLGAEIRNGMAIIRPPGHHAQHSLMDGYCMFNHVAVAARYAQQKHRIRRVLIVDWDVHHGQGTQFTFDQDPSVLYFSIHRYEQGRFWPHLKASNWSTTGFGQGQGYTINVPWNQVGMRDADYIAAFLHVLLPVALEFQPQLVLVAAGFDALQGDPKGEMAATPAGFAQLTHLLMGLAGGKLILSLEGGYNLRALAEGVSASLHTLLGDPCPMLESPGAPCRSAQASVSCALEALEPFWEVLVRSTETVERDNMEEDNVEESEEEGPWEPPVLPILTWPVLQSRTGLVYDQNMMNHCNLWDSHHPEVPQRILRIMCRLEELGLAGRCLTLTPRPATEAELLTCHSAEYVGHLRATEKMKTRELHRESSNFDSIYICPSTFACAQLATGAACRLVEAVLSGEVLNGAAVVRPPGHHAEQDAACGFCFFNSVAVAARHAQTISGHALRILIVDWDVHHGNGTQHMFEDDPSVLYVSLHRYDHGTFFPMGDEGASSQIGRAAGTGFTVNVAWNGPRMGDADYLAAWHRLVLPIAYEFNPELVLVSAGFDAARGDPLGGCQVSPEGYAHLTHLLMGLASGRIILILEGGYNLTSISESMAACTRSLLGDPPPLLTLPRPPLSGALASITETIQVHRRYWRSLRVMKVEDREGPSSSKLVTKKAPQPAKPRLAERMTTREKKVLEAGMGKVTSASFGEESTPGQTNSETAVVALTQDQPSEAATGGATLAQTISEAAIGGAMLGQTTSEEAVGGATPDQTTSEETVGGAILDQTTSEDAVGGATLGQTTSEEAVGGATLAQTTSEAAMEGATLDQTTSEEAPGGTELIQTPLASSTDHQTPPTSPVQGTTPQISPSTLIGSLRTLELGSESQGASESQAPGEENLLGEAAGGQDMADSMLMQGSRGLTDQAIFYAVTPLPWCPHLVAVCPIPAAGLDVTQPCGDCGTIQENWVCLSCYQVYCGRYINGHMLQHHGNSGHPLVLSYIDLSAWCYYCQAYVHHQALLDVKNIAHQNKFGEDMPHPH
As to the kind of experiment: Inhibition of HDAC6 (unknown origin).

Another data set deals with A2780. The experiment in a line: Antiproliferative activity against human A2780 cells assessed as inhibition of cell growth incubated for 72 hrs by CCK-8 assay. Format: functional, cell-based. The note with it: A2780, 72 h.
Data set [11] relates to U-87 MG. As to the kind of experiment: cells. Type of data set: functional, cell-based, U-87MG ATCC. The note with it: Homo sapiens, 72 h.
Description: Antiproliferative activity against human U-87 MG cells assessed as inhibition of cell growth measured after 72 hrs by MTT assay
The subject of data set [12] is C6. As to the kind of experiment: cells. Type of data set: functional, cell-based. The conditions noted are these: Rattus norvegicus, C6, 72 h.
Description: Antiproliferative activity against rat C6 cells assessed as inhibition of cell growth measured after 72 hrs by MTT assay
In data set [13] the test system is U-87 MG. The experiment in a line: Antitumor activity against luciferase-transferred human U-87 MG cells xenografted in athymic nude mouse assessed as survival time at 25 mg/kg, po measured for 20 days. Type of data set: functional, U-87MG ATCC. The conditions noted are these: time 20 day.
In data set [14] the test system is C6. The experiment in a line: Antitumor activity against rat C6 cells allografted in Sprague-Dawley rat assessed as survival time at 20 mg/kg, po measured for 20 days. Format: functional. The note with it: time 20 day.

As for `COc1cc(-c2cccc(-c3ccc(/C=C/C(=O)NO)cc3)n2)cc(OC)c1OC`, the inhibition in vivo at 50 mg/kg with BE(2)-C [1] amounted to 61%. For the same molecule, in [2], the half-life turned out to be 54.8 min. For the same molecule, the CLint scaled in [3] was 22.8 mL/min/kg. In addition, on Histone deacetylase 8, the IC50 came out at 117 nM.

Consider `O=C(CCCCCCC(=O)Nc1ccccc1)NO` [VORINOSTAT], for which the Survival in the data set on U-87 MG [4] and in the data set with C6 [5] was 13 days each time.

As to `CC(=O)O[C@H]1C(=O)[C@@]2(C)[C@H]([C@H](OC(=O)c3ccccc3)[C@]3(O)C[C@H](OC(=O)[C@H](O)[C@@H](NC(=O)c4ccccc4)c4ccccc4)C(C)=C1C3(C)C)[C@]1(OC(C)=O)CO[C@@H]1C[C@@H]2O` [PACLITAXEL], the values for the inhibition in vivo at 5 mg/kg in the data set on BE(2)-C [6] and in the data set with BE(2)-C [7] were 30% and 44%, respectively.

Regarding `COc1ccc(-c2cc(-c3ccc(C(C)C)cc3)cnc2NCc2ccc(C(=O)NO)cc2)cc1`, the Activity with SK-OV-3 [8] is about 35%. Also, the half-inhibitory concentration (IC50) in the data set on SK-OV-3 [9] was 870 nM; in [10], 180 nM; in the data set on A2780, 5400 nM.

With `O=C(/C=C/c1cccc(S(=O)(=O)n2ccc3cccnc32)c1)NO`, the IC50 came to 1850 nM in the data set with U-87 MG [11], 2250 nM in the data set on C6 [12] and 32 nM in [10]. The Survival in the data set on U-87 MG [13] and with C6 [14] was over 20 days each time.
